In patent US11319336B2, “Ship inhibitors and uses thereof” (The Research Foundation For The State University Of New York, priority 2010, dated 2022):
Entries after “also recorded” stand apart in the source; their conditions may differ.

Legend:
[1] = molecular target: T1, recombinant SHIP1 (Homo sapiens, UniProt Q92835); assay: Malachite Green phosphatase assay for SHIP1 activity against PI(3,4,5)P3 substrate; type: biochemical
T1 sequence (Q92835 1-1189): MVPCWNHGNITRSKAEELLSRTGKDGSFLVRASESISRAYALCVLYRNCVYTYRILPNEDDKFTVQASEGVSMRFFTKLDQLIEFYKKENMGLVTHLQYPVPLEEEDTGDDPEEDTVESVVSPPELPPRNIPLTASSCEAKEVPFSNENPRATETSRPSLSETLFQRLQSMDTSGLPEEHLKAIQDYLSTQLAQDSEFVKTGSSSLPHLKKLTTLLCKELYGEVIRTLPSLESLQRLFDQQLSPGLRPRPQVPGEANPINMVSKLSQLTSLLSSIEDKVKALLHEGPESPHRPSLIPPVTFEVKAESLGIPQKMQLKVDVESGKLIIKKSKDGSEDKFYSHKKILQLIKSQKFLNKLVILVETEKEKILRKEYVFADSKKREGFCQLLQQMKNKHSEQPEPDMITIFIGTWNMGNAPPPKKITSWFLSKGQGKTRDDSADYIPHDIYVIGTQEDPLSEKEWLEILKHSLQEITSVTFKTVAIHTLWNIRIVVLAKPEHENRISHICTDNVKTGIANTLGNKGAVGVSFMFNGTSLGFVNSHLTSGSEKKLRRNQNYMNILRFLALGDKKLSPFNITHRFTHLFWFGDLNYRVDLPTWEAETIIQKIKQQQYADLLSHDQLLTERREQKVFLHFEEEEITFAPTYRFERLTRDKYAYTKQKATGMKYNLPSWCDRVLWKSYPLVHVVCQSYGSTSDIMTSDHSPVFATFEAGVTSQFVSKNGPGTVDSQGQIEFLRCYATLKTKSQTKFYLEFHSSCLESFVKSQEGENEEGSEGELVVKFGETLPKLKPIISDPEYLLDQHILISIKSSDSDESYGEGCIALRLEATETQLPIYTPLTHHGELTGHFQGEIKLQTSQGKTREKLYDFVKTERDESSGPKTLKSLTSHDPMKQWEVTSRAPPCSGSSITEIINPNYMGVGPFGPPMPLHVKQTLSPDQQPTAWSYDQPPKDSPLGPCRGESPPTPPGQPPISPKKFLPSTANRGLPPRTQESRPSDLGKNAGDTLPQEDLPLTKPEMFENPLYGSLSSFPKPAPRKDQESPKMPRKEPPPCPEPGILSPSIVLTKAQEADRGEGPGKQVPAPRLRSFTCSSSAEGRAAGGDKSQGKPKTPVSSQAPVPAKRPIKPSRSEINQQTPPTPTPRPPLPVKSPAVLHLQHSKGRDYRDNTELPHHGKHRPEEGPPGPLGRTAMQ
Protocol: Absorbance is recorded at 620 nm, smaller numbers indicate a lack of green color and inhibition of the phosphatase.
(§1) [Noto bene: DRV-IV-26=3A5AS]

[2] = system: MIR cell numbers; assay: MIR cell induction in treated mice; type: in vivo; conditions: FIG. 6C, D
Protocol: as §1
The solubility of 3AC was assessed by calculating the distribution coefficient (CLogD). This calculation estimates the CLogD for 3AC at 7.17 indicating the molecule is very lipophilic. Thus, we have begun to develop novel 3AC analogs with increased aqueous solubility. One of these compounds, 3A5AS, has a CLogD of 3.33. Lipinski's rules (a common measure of small molecule pharmacokinetics) recommend a ClogD of <5 for in vivo applications.

SMILES | Inhibition of recombinant SHIP1 activity in vitro, compared with 3AC ([1]; Malachite Green assay, PI(3,4,5)P3 substrate, FIG. 5B / FIG. 6A) | Concentration inducing a comparable MIR cell increase in vivo [2] | Potency at inducing MIR cell numbers in vivo, compared with 3AC [2] | SHIP1 inhibition by lack of green color ([1]; SHIP1 malachite phosphatase assay, FIG. 1, visual readout)
C[C@@]12CCC[C@H]1[C@@H]1CC[C@H]3C[C@H](N)CC[C@]3(C)[C@H]1CC2 [Example 3A5AS, 3α-amino-5α-androstane] | equal inhibitory activity; also recorded: equally potent | 15 µM | more potent | 
CC(C)CCC[C@@H](C)[C@H]1CC[C@H]2[C@@H]3CCC4C[C@H](N)CC[C@]4(C)[C@H]3CC[C@]12C (some centres unmarked) [Example 3AC, reference compound] |  | 60 µM |  | 
CCN [ethylamine] |  |  |  | poor inhibitor
